Laboratory results: patent publication US5496947A, “Quinolone carboxylic acid derivatives” (Dong Wha Pharmaceutical Industrial Co., Ltd., priority 1994, dated 1996)
Values after ≈ are worked out from the molar mass of the structure shown. Read-outs that look alike come from different tables or passages of the source.

Columns and labels:
[1] = test system: Klebsiella pneumoniae ATCC 13883; assay: MIC, 2-fold dilution method in micro-well plate, K. pneumoniae; type: cell-based
Protocol: (§1) The in vitro antibiotic activity of the present compound is measured using 2-fold dilution method with a micro-well plate and the bacteria are inoculated in about 10^5 cfu/ml after an overnight culture in a brain-heart infusion (BHI) broth at 37° C. The novel compounds of the present invention are converted to a hydrochloride salt form and diluted with a sterilized distilled water to make 10 mg/ml aqueous solution. After the mother liquor wherein the compound is diluted to the two-fold concentration has been obtained in the form of an aqueous solution, the respective 0.1 ml of diluted liquor is transferred to a well and is inoculated with 0.1 ml of the culture fluid to make about (10^5 -10^6)/2 cfu/ml.
(§2) After cultivation at 37° C., the minimum inhibitory concentration (MIC) is measured and recorded in Table I-V.
(§3) Table I-V show the minimum inhibitory concentrations (MIC).
Klebsiella pneumoniae ATCC 13883

[2] = test system: Pseudomonas aeruginosa ATCC 27853; assay: MIC, 2-fold dilution method in micro-well plate, P. aeruginosa; type: cell-based
Protocol: as §1, §2, §3
Pseudomonas aeruginosa ATCC 27853

[3] = test system: Streptococcus pyrogens ATCC 19615; assay: MIC, 2-fold dilution method in micro-well plate, S. pyrogens; type: cell-based; conditions: S. pyrogenes ATCC19615, 37° C., read-out: Minimum Inhibitory Concentration
Protocol: as §1, §2, §3
Streptococcus pyrogens ATCC 19615

[4] = test system: Salmonella typhimurium ATCC 14028; assay: MIC, 2-fold dilution method in micro-well plate, S. typhimurium; type: cell-based; conditions: Salmonella enterica, read-out: Minimum Inhibitory Concentration
Protocol: as §1, §2, §3
Salmonella typhimurium ATCC 14028

[5] = test system: Haemophilus influenza ATCC 35056; assay: MIC, 2-fold dilution method in micro-well plate, H. influenzae; type: cell-based; conditions: H. influenzae ATCC35056, 37° C.; read-out: Minimum Inhibitory Concentration
Protocol: as §1, §2, §3
Haemophilus influenza ATCC 35056

[6] = test system: Escherichia coli ATCC 25922; assay: MIC, 2-fold dilution method in micro-well plate, E. coli; type: cell-based
Protocol: as §1, §2, §3
Escherichia coli ATCC 25922

[7] = test system: Shigella sonnei ATCC 25931; assay: MIC, 2-fold dilution method in micro-well plate, S. sonnei; type: cell-based; conditions: S. sonnei ATCC25931, 37° C., read-out: Minimum Inhibitory Concentration
Protocol: as §1, §2, §3
Shigella sonnei ATCC 25931

[8] = test system: Streptococcus pneumoniae ATCC 6303; assay: MIC, 2-fold dilution method in micro-well plate, S. pneumoniae; type: cell-based; conditions: S. pneuinoniae ATCC6303, 37° C., read-out: Minimum Inhibitory Concentration
Protocol: as §1, §2, §3
Streptococcus pneumoniae ATCC 6303

Enterobacter cloacae = assay: MIC, 2-fold dilution method in micro-well plate, E. cloacae; type: cell-based; conditions: read-out: Minimum Inhibitory Concentration
Protocol: as §1, §2, §3
Enterobacter cloacae ATCC 23355

[9] = test system: Streptococcus faecalis ATCC 29212; assay: MIC, 2-fold dilution method in micro-well plate, S. faecalis ATCC 29212; type: cell-based; conditions: Enterococcus faecalis; S. faecalis ATCC29212, 37° C.; read-out: Minimum Inhibitory Concentration
Protocol: as §1, §2, §3
Streptococcus faecalis ATCC 29212

[10] = test system: Citrobacter freundii ATCC 8090; assay: MIC, 2-fold dilution method in micro-well plate, C. freundii; type: cell-based
Protocol: as §1, §2, §3
Citrobacter freundii ATCC 8090

[11] = test system: Shigella flexneri ATCC 12022; assay: MIC, 2-fold dilution method in micro-well plate, S. flexneri; type: cell-based; conditions: S. flexneri ATCC12022, 37° C., read-out: Minimum Inhibitory Concentration
Protocol: as §1, §2, §3
Shigella flexneri ATCC 12022

[12] = test system: Streptococcus faecalis ATCC 19433; assay: MIC, 2-fold dilution method in micro-well plate, S. faecalis ATCC 19433; type: cell-based; conditions: Enterococcus faecalis; S. faecalis ATCC19433, 37° C.; read-out: Minimum Inhibitory Concentration
Protocol: as §1, §2, §3
Streptococcus faecalis ATCC 19433

[13] = test system: Proteus vulgaris ATCC 13315; assay: MIC, 2-fold dilution method in micro-well plate, P. vulgaris; type: cell-based
Protocol: as §1, §2, §3
Proteus vulgaris ATCC 13315

[14] = test system: Serratia marcescens ATCC 8100; assay: MIC, 2-fold dilution method in micro-well plate, S. marcescens; type: cell-based
Protocol: as §1, §2, §3
Serratia marcescens ATCC 8100

[15] = test system: Enterobacter aerogenes ATCC 13048; assay: MIC, 2-fold dilution method in micro-well plate, E. aerogenes; type: cell-based; conditions: Klebsiella aerogenes
Protocol: as §1, §2, §3
Enterobacter aerogenes ATCC 13048

[16] = test system: Acinetobacter calcoaceticus; assay: MIC, 2-fold dilution method in micro-well plate, A. calcoaceticus; type: cell-based
Protocol: as §1, §2
Table I-V show the minimum inhibitory concentrations (MIC). […]

[17] = Pharmacokinetic properties in ICR mouse, oral and subcutaneous, Bio-Assay (Agar well method); type: in vivo; conditions: 40 mg/kg, average of four tests; for dose excreted: urine, read-out: Urine Recovery
Protocol: The pharmacokinetic properties are tested by orally administrating and subcutaneously injecting a test compound and a substance for control to a ICR Mouse with 22 g±10% weight, drawing blood after 10, 20, 30, 45, 60, 90, 120, 150, 180 and […] and analyzed by Bio-Assay (Agar well method).

[18] = ATCC13883, read-out: Minimum Inhibitory Concentration
[19] = P. aerugirnosa ATCC27853, 37° C., read-out: Minimum Inhibitory Concentration
[20] = E. coli ATCC25922, 37° C., read-out: Minimum Inhibitory Concentration
[21] = C. freundii ATCC8090, 37° C., read-out: Minimum Inhibitory Concentration
[22] = ATCC13315, read-out: Minimum Inhibitory Concentration
[23] = S. marcescens ATCC8100, 37° C., read-out: Minimum Inhibitory Concentration
[24] = E. aerogenes ATCC13048, 37° C., read-out: Minimum Inhibitory Concentration
[25] = ATCC8090, read-out: Minimum Inhibitory Concentration
[26] = ATCC8100, read-out: Minimum Inhibitory Concentration
[27] = ATCC25922, read-out: Minimum Inhibitory Concentration
[28] = ATCC13048, read-out: Minimum Inhibitory Concentration
[29] = A. calcoaceticus ATCC8090 (as in tables), 37° C., read-out: Minimum Inhibitory Concentration
[30] = K. pneumoniae ATCC13883, 37° C., read-out: Minimum Inhibitory Concentration
[31] = P. vulgaris ATCC13315, 37° C., read-out: Minimum Inhibitory Concentration
[32] = E. cloacae ATCC23355 (as in tables), 37° C.
[33] = ATCC27853, read-out: Minimum Inhibitory Concentration

Compound | MIC [1, 18] [µg/mL] | MIC [2, 19] [µg/mL] | MIC [3] [µg/mL] | MIC [4] [µg/mL] | MIC [5] [µg/mL] | MIC [6, 20] [µg/mL] | MIC [7] [µg/mL] | MIC [8] [µg/mL] | MIC (Enterobacter cloacae) [µg/mL] | MIC [9] [µg/mL] | MIC [10, 21] [µg/mL] | MIC [11] [µg/mL] | MIC [12] [µg/mL] | MIC [13, 22] [µg/mL] | MIC [15, 24] [µg/mL] | MIC [16, 25] [µg/mL] | MIC [10, 25] [µg/mL] | MIC [14, 26] [µg/mL] | MIC [15, 28] [µg/mL] | MIC [16, 29] [µg/mL] | other results
Cl.O=C(O)c1cn(-c2ccncc2F)c2cc(N3CCNCC3)c(F)cc2c1=O [Example 1, 1-(3-fluoro-4-pyridyl)-6-fluoro-7-(1-piperazinyl)-1,4-dihydro-4-oxoquinoline-3-carboxylic acid hydrochloride] | 0.625 | 0.625 | 5 | 0.625 | 0.625 | 1.25 | 0.625 | 2.5 | 0.625 | 5 | 1.25 | 0.625 | 5 | 0.625 | 1.25 | 0.625 | – | – | – | – | MIC [14, 23]: 0.313 µg/mL
CN1CCN(c2cc3c(cc2F)c(=O)c(C(=O)O)cn3-c2ccncc2F)CC1.Cl [Example 2, 1-(3-fluoro-4-pyridyl)-6-fluoro-7-(4-methyl-1-piperazinyl)-1,4-dihydro-4-oxoquinoline-3-carboxylic acid hydrochloride] | 0.625 | 0.625 | 10 | 0.625 | 0.625 | 1.25 | 0.625 | 10 | 0.625 | 5 | – | 0.625 | 5 | 0.625 | 1.25 | 0.625 | 0.625 | 0.625 | – | – | –
CC1CN(c2cc3c(cc2F)c(=O)c(C(=O)O)cn3-c2ccncc2F)CCN1.Cl (centres unmarked) [Example 3, 1-(3-fluoro-4-pyridyl)-6-fluoro-7-(3-methyl-1-piperazinyl)-1,4-dihydro-4-oxoquinoline-3-carboxylic acid hydrochloride] | 0.625 | 0.625 | 10 | 0.625 | 1.25 | – | 0.625 | 5 | 0.625 | 5 | – | 2.5 | 2.5 | 0.625 | – | 0.625 | 1.25 | 0.625 | 1.25 | – | MIC [6, 27]: 0.625 µg/mL
CC1CN(c2cc3c(cc2F)c(=O)c(C(=O)O)cn3-c2ccncc2F)CC(C)N1.Cl (centres unmarked) [Example 4, 1-(3-fluoro-4-pyridyl)-6-fluoro-7-(3,5-dimethyl-1-piperazinyl)-1,4dihydro-4-oxoquinoline-3-carboxylic acid hydrochloride] | 0.625 | 0.625 | 10 | 1.25 | 1.25 | – | 0.625 | 10 | 0.625 | 5 | – | 1.25 | 5 | 0.625 | – | – | 1.25 | 1.25 | 1.25 | 2.5 | MIC [6, 27]: 1.25 µg/mL
Cl.NC1CCN(c2cc3c(cc2F)c(=O)c(C(=O)O)cn3-c2ccncc2F)C1 (centres unmarked) [Example 5, 1-(3-fluoro-4-pyridyl)-6-fluoro-7-(3-amino-1-pyrrolidinyl)-1,4-dihydro-4-oxoquinoline-3-carboxylic acid hydrochloride] | – | 0.313 | 5 | 0.313 | 0.313 | 0.156 | 0.078 | 2.5 | 0.313 | 2.5 | – | 0.625 | 2.5 | – | 0.156 | 0.313 | 0.313 | 0.313 | – | – | MIC [1, 30]: 0.156 µg/mL; MIC [13, 31]: 0.078 µg/mL
N[C@H]1CCN(c2cc3c(cc2F)c(=O)c(C(=O)O)cn3-c2ccncc2F)C1 [Example 6, 1-(3-fluoro-4-pyridyl)-6-fluoro-7-[(3S)-3-amino-1-pyrrolidinyl]-1,4-dihydro-4-oxoquinoline-3-carboxylic acid] | – | 0.156 (≈ 0.404 µM) | 2.5 (≈ 6.47 µM) | – | 0.313 (≈ 0.81 µM) | 0.078 (≈ 0.202 µM) | 0.02 (≈ 0.0518 µM) | 2.5 (≈ 6.47 µM) | – | 2.5 (≈ 6.47 µM) | – | 0.313 (≈ 0.81 µM) | 1.25 (≈ 3.24 µM) | – | – | – | 0.313 (≈ 0.81 µM) | – | 0.313 (≈ 0.81 µM) | 0.156 (≈ 0.404 µM) | MIC [1, 30]: 0.156 µg/mL (≈ 0.404 µM); MIC ([4]; S. typhisurium ATCC14028, 37° C.): 0.156 µg/mL (≈ 0.404 µM); MIC (Enterobacter cloacae; [32]): 0.156 µg/mL (≈ 0.404 µM); MIC [13, 31]: 0.078 µg/mL (≈ 0.202 µM); MIC [14, 23]: 0.078 µg/mL (≈ 0.202 µM)
Cl.O=C(O)c1cn(-c2ccncc2F)c2nc(N3CCNCC3)c(F)cc2c1=O [Example 7, 1-(3-fluoro-4-pyridyl)-6-fluoro-7-(1-piperazinyl)-1,4-dihydro-4-oxo-1,8-naphthyridine-3-carboxylic acid hydrochloride] | – | – | 5 | 0.313 | 0.313 | 0.625 | 0.313 | 2.5 | – | 5 | 1.25 | 0.156 | 2.5 | 0.313 | 0.625 | – | – | – | – | 2.5 | MIC [1, 30]: 0.625 µg/mL; MIC [2, 33]: 0.625 µg/mL; MIC (Enterobacter cloacae; [32]): 0.625 µg/mL; MIC [14, 23]: 1.25 µg/mL
CN1CCN(c2nc3c(cc2F)c(=O)c(C(=O)O)cn3-c2ccncc2F)CC1.Cl [Example 8, 1-(3-fluoro-4-pyridyl)-6-fluoro-7-(4-methyl-1-piperazinyl)-1,4-dihydro-4-oxo-1,8-naphthyridine-3-carboxylic acid hydrochloride] | 0.625 | – | 10 | 0.313 | 0.625 | – | 0.625 | 5 | 0.625 | 5 | 1.25 | 0.313 | 5 | 0.313 | – | – | – | 0.625 | 0.625 | 1.25 | MIC [2, 33]: 0.625 µg/mL; MIC [6, 27]: 0.313 µg/mL
CC1COc2c(N3CCN(C)CC3)c(F)cc3c(=O)c(C(=O)O)cn1c23 (centres unmarked) [Ofloxacin, reference compound] | – | – | – | – | – | – | – | – | – | – | – | – | – | – | – | – | – | – | – | – | AUC ([17]; blood, po, P.O): 12800 ng·h/mL; Cmax ([17]; blood, po, P.O): 9410 ng/mL; Tmax ([17]; blood, po, P.O): 45 min; bioavailability ([17]; blood, po, P.O): 89.8%; AUC ([17]; blood, sc, S.C): 14200 ng·h/mL; Cmax ([17]; blood, sc, S.C): 12900 ng/mL; Tmax ([17]; blood, sc, S.C): 25.2 min; half-life ([17]; blood, sc, S.C): 25.2 min; dose excreted ([17]; po, P.O): 32.2%; dose excreted ([17]; sc, S.C): 39.1%
